Usually EC50 stands for the concentration at which the effect is half-maximal. Lower therefore signals a more potent agent.

For one test, the system named is HCC1954. The experiment in a line: In vitro cytotoxicity assay, HCC1954. The test is classed as cell-based. The method, then:
(§1) The ADC's generated as described above were tested for cytotoxic activity in SKOV3 and HCC1954 and PC3 tumor cell lines which are standard target cells for testing the activity of anti Her2 antibodies and ADC cell lines. SKOV3 and HCC1954 express high levels of Her2, while PC3 expresses Her2 at low level: the cytotoxic activity was calculated as the concentration of ADC to kill 50% of the tumor cells in vitro as described in Table 5.
(§2) The ADC's generated as described above were tested for cytotoxic activity in SKOV3 and a PC3 tumor cell lines which are standard target cells for testing the activity of anti Her2 antibodies and ADC cell lines. SKOV3 cells express high levels of Her2, while PC3 cells express Her2 at low level. […] The drug treated cells are incubated at 37 C for 3 days in 100 ul medium. 20 ul of Alamar Blue (Life Technologies) is added to each well and the cells incubated for 16-24 hours and an OD 450 nm determined for each well. The cytotoxic activity of the conjugates was calculated as the concentration of ADC to kill 50% of the tumor cells in vitro as described in Table 8.

Another test relates to BT474. The experiment in a line: In vitro cytotoxicity assay, BT474. Particulars: Table 8, 3 days, Alamar Blue. The format is cell-based.
Another test relates to SKBR3. The experiment in a line: In vitro cytotoxicity assay, SKBR3. The test is classed as cell-based. As to the method:
(§3) The Her2 over expressing cell lines, SKBR3 and SKOV3 were compared to PC3, a cell line that expresses very low level of Her2.
as §2

The subject of another test is SKOV3. Description: In vitro cytotoxicity assay, SKOV3. The format is cell-based, human. As to the method: as §1, §3, §2
Where [1] appears, read: Table 5, positional 4D5-AF ADCs.

Square brackets hold non-standard residues; d marks the D form. Peptide text beside a SMILES is read from it. * marks the point of attachment. Dolaproine = CO[C@@H]([C@@H]1CCCN1)[C@@H](C)C(=O)O; Dil = CC[C@H](C)[C@H](NC)[C@@H](CC(=O)O)OC; NMe2Val = CC(C)[C@@H](C(=O)*)N(C)C

Consider `CC[C@H](C)[C@@H]([C@@H](CC(=O)N1CCC[C@H]1[C@H](OC)[C@@H](C)C(=O)N[C@@H](Cc1ccccc1)C(=O)O)OC)N(C)C(=O)[C@@H](NC(=O)[C@H](C(C)C)N(C)C)C(C)C` [AF, Auristatin F] (NMe2Val-V[Dil][Dolaproine]F-OH), for which the EC50 in the test on HCC1954 (setting [1]) came to 18.8 nM; in the test with HCC1954 (Table 8, 3 days, Alamar Blue), 12.9 nM; in the test on BT474, 58.8 nM; in the test with SKBR3 (Table 6), 71 nM; with SKBR3 (Table 8, 3 days, Alamar Blue) it was 33.3 nM; in the test on SKOV3 (setting [1]) it was 69.4 nM. Further, the half-maximal effective concentration (EC50) in the test on SKOV3 (Table 6) was found to be 287 nM; in the test with SKOV3 (Table 8, 3 days, Alamar Blue), 23.5 nM.

For the origin of these results see patent publication US9732367B2, “Cell lines” (MEDIMMUNE LIMITED, priority 2012, dated 2017).
